Results from publication PMC10233092, “Selective Janus kinase 1 inhibition resolves inflammation and restores hair growth offering a viable treatment option for alopecia areata” (Skin Health and Disease, 2023).
In brackets after ≈: the same amount, converted by molar mass. Several values for one entry are separate records, joined by “and”; a condition that tells them apart may be missing. Identical values can stand only once.

Tests used:
JAK2 = JAK2 (Homo sapiens, UniProt O60674); test: JAK2 kinase inhibition, Calliper assay; type: biochemical; settings: physiological ATP concentration of 5 mM
JAK2, sequence (O60674 whole entry, species assumed): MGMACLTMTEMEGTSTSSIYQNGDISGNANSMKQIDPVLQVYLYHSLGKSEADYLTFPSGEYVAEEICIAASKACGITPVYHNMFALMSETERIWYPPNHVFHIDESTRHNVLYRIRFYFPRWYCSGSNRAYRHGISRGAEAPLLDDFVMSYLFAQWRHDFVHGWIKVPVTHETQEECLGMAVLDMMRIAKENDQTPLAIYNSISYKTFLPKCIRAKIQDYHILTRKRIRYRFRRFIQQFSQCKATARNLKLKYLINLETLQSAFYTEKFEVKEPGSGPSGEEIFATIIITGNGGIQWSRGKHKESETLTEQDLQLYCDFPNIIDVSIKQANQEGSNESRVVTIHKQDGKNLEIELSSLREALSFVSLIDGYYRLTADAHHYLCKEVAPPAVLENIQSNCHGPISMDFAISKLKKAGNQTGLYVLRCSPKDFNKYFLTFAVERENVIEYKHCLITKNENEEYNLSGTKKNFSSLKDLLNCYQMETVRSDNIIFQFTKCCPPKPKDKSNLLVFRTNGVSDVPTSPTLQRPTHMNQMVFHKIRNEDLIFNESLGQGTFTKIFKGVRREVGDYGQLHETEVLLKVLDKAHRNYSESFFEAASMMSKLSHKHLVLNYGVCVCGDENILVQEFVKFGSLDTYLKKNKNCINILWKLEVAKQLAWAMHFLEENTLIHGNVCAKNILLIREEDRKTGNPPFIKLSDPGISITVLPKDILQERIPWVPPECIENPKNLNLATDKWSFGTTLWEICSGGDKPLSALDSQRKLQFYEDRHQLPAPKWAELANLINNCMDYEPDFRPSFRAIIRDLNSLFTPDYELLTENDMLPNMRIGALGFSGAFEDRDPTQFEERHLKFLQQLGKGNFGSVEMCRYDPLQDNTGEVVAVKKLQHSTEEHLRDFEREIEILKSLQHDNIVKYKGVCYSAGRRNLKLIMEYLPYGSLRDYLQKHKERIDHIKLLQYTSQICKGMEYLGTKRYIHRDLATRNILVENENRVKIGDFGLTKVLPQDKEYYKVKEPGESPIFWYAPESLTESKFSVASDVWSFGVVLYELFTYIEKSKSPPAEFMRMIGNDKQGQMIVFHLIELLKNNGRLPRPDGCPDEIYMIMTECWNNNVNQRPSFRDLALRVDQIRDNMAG

IL‐4, STAT6‐Luc = test: IL-4-induced JAK-STAT6-luciferase assay in U937 monocytes; type: cell-based; settings: Homo sapiens, U-937, interleukin at EC80
IL‐13, STAT6‐Luc = test: IL-13-induced JAK-STAT6-luciferase assay in U937 monocytes; type: cell-based; settings: Homo sapiens, U-937, interleukin at EC80
[1] = Solubility in phosphate buffer; type: physicochemical; settings: pH 7.4, aqueous buffer
Text: TABLE 1 In vitro potency and selectivity of JAK inhibitors | column: Solubility (μM) ^c

LogD7.4 = type: physicochemical; settings: pH 7.4
Text: TABLE 2 In vitro and in vivo DMPK properties of Cmpd A, B & C | column: In vitro mouse & physical chemical properties / LogD7.4

[2] = Unbound fraction in tissue from rearranged Gillette equation; type: in vitro ADME, mouse; settings: for f u, tissue: mouse, from rearranged Gillette equation, V blood 0.07 L/kg, V tissue 0.6 L/kg
Text: (§1) Detailed description in Supplementary materials.

[3] = Mouse pharmacokinetics i.v./p.o.; type: in vivo; settings: plasma, male C57Bl6 mice; for clearance / Vd: iv, i.v. 0.5-1.0 mg/kg; for Vd: read-out: V ss; for bioavailability: po, p.o. 300 (A), 1.0 (B), 2.0 (C) mg/kg, read-out: Oral % F
Protocol: as §1
Pharmacokinetics and evaluation of compound exposures: Male C57/BL mice were obtained from Si Bei Fu and weighed approximately 20-30 grams (7-9 weeks) at the start of the pharmacokinetic study. Animals had free access to food and water during the course of the experiment. Dose formulations were prepared on the study day and were stirred at room temperature for at least 15 minutes prior dosing and during the administration event. Cmpd A, B and C were dosed at 0.5-1 mg/kg i.v. and 1-300 mg/kg p.o. The dorsal metatarsal vein was used for sampling and typically 0.02 mL blood was withdrawn. Blood was taken at 2, 5, 15, 45 min, 2, 4, 8, 24 hours post the i.v. dose and at 15, 30 min, 1, 2, 4, 8, 24 hours post the p.o. dose. Blood of each sample was transferred into plastic micro centrifuge tubes containing 2 μL of 1000 IU Heparin-Na anticoagulant. These tubes were then inverted several times and placed on wet ice prior to centrifugation at 10,000 rpm for 2 minutes at 4°C in order to collect plasma. Plasma samples were stored at -75±15°C prior analysis. Compound concentrations were analyzed using a LC-MS/MS method (see below).
Effective T1/2 equals Ln2 x Vss/CL.

[4] = system: C3H/HeJ mouse model of AA; test: Skin histopathology and hair follicle analysis in AA mice; type: in vivo; settings: for Follicle width / Number of hair follicles per section (hypodermal): individual mice and Mean; for skin inflammation, result in words: AA mice, oral daily servings (systemic exposure)
Protocol: A 1 cm^2 area of skin was excised from the right dorsal surface and fixed in 10% neutral buffered formalin for 24 h before processing and embedding in paraffin wax according to standard procedures. Vertical sectioning was chosen to allow for optimal detection of inflammatory cells whilst enabling follicular counts. 3 μm longitudinal sections were cut and stained with haematoxylin and eosin for histopathological analysis. Skin sections were scanned using an Aperio Scanscope. CD8 and NKG2D in situ hybridization (ISH) was carried out using the RNAScope technique[48] according to the manufacturer's protocols. Briefly, tissue sections were deparaffinised and incubated with epitope retrieval solution 2 for 15 min at 88°C followed by ACD protease for 10 min before hybridization with probe Mm‐Klrk1 (ACD, Cat.No.430808) and probe Mm‐Cd8a‐C2 (ACD, Cat.No. 401688‐C2) or duplex negative control probes Mm‐DapB (ACD, Cat.No. 320758). Bound probe was visualized following amplification with RNAScope 2.5 LS Duplex Reagent Kit‐(RED/BROWN) (ACD Cat.No. 322440). Staining was visualized by light microscopy. Number of hair follicles and hair follicle width were analyzed using ImageJ software edition ImageJ2. Images were imported using the bio‐format importer plug in. The number of follicles were counted using the cell counter plugin. All follicles on all sections in the dermal fat layer were counted. Follicle width was calculated with use of the circle tool to capture follicle area and from it calculate the width. All follicles on all sections in the dermal fat layer were included in the width analysis.

[5] = Plasma and skin exposure in treated AA mice; settings: AA mice
[6] = 8w off Tx (4 weeks oral treatment, then 8 weeks off)
[7] = 8w off Tx (4 weeks oral treatment, then 8 weeks off), mean
[8] = Systemic JAK1i, after 4 weeks oral treatment
[9] = Systemic JAK1i, after 4 weeks oral treatment, mean
[10] = topical cream application (local)

Row | IC50 (JAK2) | IC50 (IL‐4, STAT6‐Luc) | IC50 (IL‐13, STAT6‐Luc) | solubility [1] | logD (LogD7.4) | f u, tissue [2] | clearance [3] | Vd [3] | bioavailability [3] | Structure (SMILES) | skin inflammation, result in words [4] | other results
1 | 18000 nM | 84 nM | 120 nM | > 337 µM | 2.9 | 0.003 | 32 mL/min/kg | 9.1 L/kg | 100% | Cc1cnc(Nc2cccnc2F)nc1-c1c[nH]c2c(NC(=O)[C@@H](C)N3CCN(C)CC3)cccc12 [Cmpd A] | resolution of inflammation in the skin | unbound fraction in plasma compared to skin ([2]; skin value estimated from the Gillette equation): ~10 fold; Follicle width [4, 6]: 36 μm and 26 μm and 38 μm and 31 μm and 35 μm; Number of hair follicles per section (hypodermal) [4, 6]: 51 and 595 and 35 and 9 and 44 and 48; Follicle width [4, 7]: 32 μm; Number of hair follicles per section (hypodermal) [4, 7]: 130; Follicle width [4, 8]: 28 μm and 26 μm and 29 μm and 25 μm; Number of hair follicles per section (hypodermal) [4, 8]: 150 and 542 and 263 and 363 and 20 and 288; Follicle width [4, 9]: 27 μm; Number of hair follicles per section (hypodermal) [4, 9]: 271; estimated average free exposure in plasma over IC50 ([5]; oral daily servings (systemic)): 1.2 fold IC50; estimated average free exposure in skin over IC50 ([5]; oral daily servings (systemic)): 0.1 fold IC50
2 | > 30000 nM | 110 nM | 100 nM | > 955 µM | 1.5 | 0.063 | 38 mL/min/kg | 8.4 L/kg | 16% | Cc1cnc(Nc2cc(N3C[C@@H]4C[C@H]3CN4C)cnc2F)nc1N[C@H](C)[C@H](C)CO [Cmpd B, (2S,3R)-3-{[2-({2-fluoro-5-[(1S,4S)-5-methyl-2,5-diazabicyclo[2.2.1]heptan-2-yl]pyridin-3-yl}amino)-5-methylpyrimidin-4-yl]amino}-2-methylbutan-1-ol] |  | estimated average free exposure in plasma over IC50 [5, 10]: 0.02 fold IC50; estimated average free exposure in skin over IC50 [5, 10]: 1.9 fold IC50
3 |  | 24 nM |  | 6.6 µM (≈ 3.96 µg/mL) | 2.6 | 0.011 | 26 mL/min/kg | 6.9 L/kg | 86% | COCC(C(=O)Nc1cccc2c(-c3nc(Nc4cccc(S(C)(=O)=O)c4F)ncc3F)c[nH]c12)N1CCN(C)CC1 (stereo not shown) [Cmpd C] | resolved inflammation | 
